pIC50: −log10 of the molar value.
Target: T1, kinases (kinome) (Homo sapiens, UniProt P07948)
T1 construct: determined in kinobeads assays with mass spectrometry detection of kinases as described previously; endogenous in cells; host or cells: cell lysate
Assay: kinobeads assay with mass spectrometry detection of kinases (kinase selectivity profile)
Type: binding
Conditions: LYN (TK), IPI00298625
Text: The protein kinase complement of the human genome (the kinome) was described previously (Manning et al., 2002. Science 298(5600):1912-1934). Sequence accession numbers are defined by the International Protein Index (IPI) (Kersey et al., 2004. Proteomics 4(7):1985-1988).

T1 sequence (P07948 whole entry): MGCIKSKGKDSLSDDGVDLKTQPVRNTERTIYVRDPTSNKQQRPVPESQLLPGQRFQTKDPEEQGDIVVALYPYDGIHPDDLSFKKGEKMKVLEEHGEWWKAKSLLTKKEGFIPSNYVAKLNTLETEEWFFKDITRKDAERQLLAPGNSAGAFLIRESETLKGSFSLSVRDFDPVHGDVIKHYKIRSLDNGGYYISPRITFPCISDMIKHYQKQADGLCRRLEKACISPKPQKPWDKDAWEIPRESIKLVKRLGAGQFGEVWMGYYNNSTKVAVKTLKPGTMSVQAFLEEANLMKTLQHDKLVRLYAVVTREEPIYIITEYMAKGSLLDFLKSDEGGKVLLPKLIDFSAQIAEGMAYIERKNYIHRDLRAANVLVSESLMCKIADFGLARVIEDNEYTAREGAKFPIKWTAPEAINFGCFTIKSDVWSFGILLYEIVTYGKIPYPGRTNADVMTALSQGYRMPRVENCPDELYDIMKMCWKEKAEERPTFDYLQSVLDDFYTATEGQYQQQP

In the case of `C[C@H]1COCCN1c1nc(-c2ccc(NC(=O)NC3CC3)cc2)cc(-c2ccccc2S(C)(=O)=O)n1` [Example 4, (S)-1-cyclopropyl-3-(4-(2-(3-methylmorpholino)-6-(2-(methylsulfonyl)phenyl)pyrimidin-4-yl)phenyl)urea], the pIC50 was < 5.00.

Tested on: Akt serine-473 phosphorylation in HEK293T/17 cells
Assay: In vitro phospho-Akt cellular assay (pAkt S473)
Type: cell-based
Conditions: Homo sapiens, Table 6, 2 hours, Akt Ser473, read-out: pAKT (Phospho-Akt cell assay data, activity level)
Text: In Vitro Phospho-S6 and Phospho-Akt Cellular Assay
Activation of mTOR signaling results in phosphorylation of several downstream targets. In cells, mTOR exists in two different protein complexes. The mTOR Complex-1 (mTORC1) phosphorylates and activates S6 Kinase 1 (S6K1) and S6 Kinase 2 (S6K2) (also known as p70S6K) which then phosphorylate S6 Ribosomal Protein (S6RP) (also known as RPS6). S6RP is phosphorylated on serine 235, serine 236, serine 240 and serine 244 by both pS6K1 and pS6K2. The mTOR Complex-2 (mTORC2) phosphorylates AKT on serine 473 which activates the AKT signaling pathway.
The assay measures a test compound's inhibition of S6RP serine-240/244 phosphorylation and inhibition of Akt serine-473 phosphorylation in human embryonic kidney derived HEK293T/17 cells (ATCC CRL-11268).
The HEK293T/17 cell line is maintained in DMEM media (Invitrogen catalogue number 41965-039) supplemented with 10% FCS at 37° C. in a 5% CO2 humidified incubator.
Cells are seeded in 96-well plates at 40,000 cells/well (pS6RP S240/244 assay) or 80,000 cells/well (pAkt 5473 assay) in 90 μl growth media (DMEM, 2% FCS). Plates are incubated for 1 hour in a humidified incubator to allow the cells to adhere. Cells are treated with 8 concentrations of test compounds or DMSO alone for controls (final DMSO concentration 0.1%) and incubated at 37° C. for 2 hours. Then 20 μl of 5× concentrated lysis buffer (750 mM NaCl, 100 mM Tris pH7.4, 5 mM EDTA, 5 mM EGTA, 5% Triton X-100) is added, plates are sealed and incubated for 15 minutes at 4° C. with gentle shaking. After cell lysis, 25 μl cell lysate is transferred to a MesoScale plate coated with an antibody to pS6RP Ser240/244 (MesoScale Discovery K150DGD-3) or an antibody to pAkt Ser 473 (MesoScale Discovery K151DGD-3). Plates have been blocked before by incubation with 150 μl MesoScale Discovery Blocking Solution-A for 1 hour at room temperature followed by washing with 150 μl 1× Tris wash buffer per well. After the transfer of the cell lysate to the MSD plate, the pS6RP (or pAkt) protein is captured on the coated antibody by incubation at room temperature for 1 hour with gentle shaking. After the capture step the plate is washed three times with 150 μl of 1× Tris wash buffer per well. Then 25 μl detection antibody conjugated with a Sulfo-Tag is added and incubated for 1 hour at room temperature with gentle shaking. Subsequently the antibody solution is removed and the plate is washed 3 times with 150 μl 1× Tris wash buffer per well and 150 μl Read buffer is added. The plates are analysed on a MSD 2400 Plate Reader (MesoScale Discovery). Data analysis is performed using nonlinear regression for a sigmoidal dose-response with a variable slope.

`CCNC(=O)Nc1ccc(-c2cc(-c3cc(F)ccc3S(C)(=O)=O)nc(N3CCOC[C@@H]3C)n2)cc1` [Example 2, (S)-1-ethyl-3-(4-(6-(5-fluoro-2-(methylsulfonyl)phenyl)-2-(3-methylmorpholino)pyrimidin-4-yl)phenyl)urea] and `C[C@H]1COCCN1c1nc(-c2ccc(NC(=O)NCCO)cc2)cc(-c2cc(F)ccc2S(C)(=O)=O)n1` [Example 41, (S)-1-(4-(6-(5-fluoro-2-(methylsulfonyl)phenyl)-2-(3-methylmorpholino)pyrimidin-4-yl)phenyl)-3-(2-hydroxyethyl)urea] cannot be ordered by pIC50: > 7.00 for the first, > 7.00 for the second.

Compared with `C[C@H]1COCCN1c1cc(-c2ccc(F)nc2)nc(-c2ccc(NC(=O)NC3CC3)cc2)n1` [Example 21, (S)-1-cyclopropyl-3-(4-(4-(6-fluoropyridin-3-yl)-6-(3-methylmorpholino)pyrimidin-2-yl)phenyl)urea], `C[C@H]1COCCN1c1cc(-c2cncc(F)c2)nc(-c2ccc(NC(=O)NC3CC3)cc2)n1` [Example 23, (S)-1-cyclopropyl-3-(4-(4-(5-fluoropyridin-3-yl)-6-(3-methylmorpholino)pyrimidin-2-yl)phenyl)urea] is higher in pIC50: 6.00 to 7.00 for the first, > 7.00 for the second. The second is the more potent here.

`C[C@H]1COCCN1c1cc(-c2ccccn2)nc(-c2ccc(NC(=O)NC3CC3)cc2)n1` [Example 42, (S)-1-cyclopropyl-3-(4-(4-(3-methylmorpholino)-6-(pyridin-2-yl)pyrimidin-2-yl)phenyl)urea] and `C[C@H]1COCCN1c1ccnc(-c2ccc(NC(=O)Nc3ccncc3)cc2)n1` [Example 60, (S)-1-(4-(4-(3-methylmorpholino)pyrimidin-2-yl)phenyl)-3-(pyridin-4-yl)urea] cannot be ordered by pIC50: > 7.00 for the first, > 7.00 for the second.

`C[C@H]1COCCN1c1nc(-c2ccc(NC(=O)NCCF)cc2)cc(-c2cc(F)ccc2S(C)(=O)=O)n1` [Example 44, (S)-1-(4-(6-(5-fluoro-2-(methylsulfonyl)phenyl)-2-(3-methylmorpholino)pyrimidin-4-yl)phenyl)-3-(2-fluoroethyl)urea] and `C[C@H]1COCCN1c1nc(-c2ccc(NC(=O)NCCCO)cc2)cc(-c2cc(F)ccc2S(C)(=O)=O)n1` [Example 64, (S)-1-(4-(6-(5-fluoro-2-(methylsulfonyl)phenyl)-2-(3-methylmorpholino)pyrimidin-4-yl)phenyl)-3-(3-hydroxypropyl)urea] cannot be ordered by pIC50: > 7.00 for the first, > 7.00 for the second.

`C[C@H]1COCCN1c1nc(-c2ccc(NC(=O)NCC(F)F)cc2)cc(-c2cc(F)ccc2S(C)(=O)=O)n1` [Example 47, (S)-1-(2,2-difluoroethyl)-3-(4-(6-(5-fluoro-2-(methylsulfonyl)phenyl)-2-(3-methylmorpholino)pyrimidin-4-yl)phenyl)urea] and `CS(=O)(=O)c1ccc(F)cc1-c1cc(-c2ccc(NC(=O)NCCO)cc2)nc(N2CCOCC2)n1` [Example 62, 1-(4-(6-(5-fluoro-2-(methylsulfonyl)phenyl)-2-morpholinopyrimidin-4-yl)phenyl)-3-(2-hydroxyethyl)urea] cannot be ordered by pIC50: > 7.00 for the first, > 7.00 for the second.

For `O=C(Nc1ccncc1)Nc1ccc(-c2nccc(N3CC4CCC(C3)O4)n2)cc1` [Example 61, 1-(4-(4-(8-oxa-3-azabicyclo[3.2.1]octan-3-yl)pyrimidin-2-yl)phenyl)-3-(pyridin-4-yl)urea], the pIC50 was > 7.00.

Source: patent US9249129B2, “Morpholino substituted urea derivatives as mTOR inhibitors” (CELLZOME LIMITED, priority 2010, dated 2016)
